Literature values, collected in patent publication US20220273701A1, “TREATMENT FOR REDUCING ADVERSE EVENTS INCLUDING CHEMOTHERAPY DISCOMFORT AND OTHER CONDITIONS” (priority 2019, published 2022).

pKa of Acid (or pH of 1:1 mixture) | Molecule
9.69 | C[C@H](N)C(=O)O [Alanine/Alanine anion, Alanine]
10.78 | N[C@@H](CS)C(=O)O [Cysteine/Cysteine anion, Cysteine]
9.60 | NCC(=O)O [Glycine/Glycine anion, Glycine]
9.60 | CC[C@H](C)[C@H](N)C(=O)O [Isoleucine/Isoleucine anion, Isoleucine]
9.3 | O=S(=O)(O)CCNC1CCCCC1 [N-Cyclohexyl-2-aminoethanesulfonic acid]
10.4 | O=S(=O)(O)CCCNC1CCCCC1 [N-cyclohexyl-3-aminopropanesulfonic acid]
10.60 | O=C(O)[C@@H]1CCCN1 [Proline/Proline anion, Proline]
9.62 | CC(C)[C@H](N)C(=O)O [Valine/Valine anion, Valine]
8.55 | O=S(=O)(O)CCCNC(CO)(CO)CO [tris(hydroxymethyl)methylamino]propanesulfonic acid]

Molecule | pKa of Acid (or pH of 1:1 mixture)
Arginine anion [Arginine anion/Arginine dianion] | 12.48
Boric Acid [Boric Acid/Borate] | 9.0
Lysine anion [Lysine anion/Lysine dianion] | 10.79
Tris(hydroxymethyl)aminomethane | 8.2
Tyrosine anion [Tyrosine anion/Tyrosine dianion] | 10.07
